Measured values reported in US9862748B2, “Peptide compounds and methods of production and use thereof” (priority 2012, dated 2018).
Square brackets hold non-standard residues; d marks the D form. Ends that are not written are not given here. Peptide text beside a SMILES is read from it. AEEA = NCCOCCOCC(=O)O

How the values were obtained:
[1] = test system: Pseudomonas aeruginosa ATCC® 27853™; assay type: cell-based; settings: gentamicin 4 μg/ml; for activity against P. aeruginosa: 120-146WR at 25 μM
Method: (§1) In vitro bactericidal activity: The three peptide compounds BCC01-5RMP (SEQ ID NO: 21), BCC02-5RMP (SEQ ID NO: 22), and BCC03-5RMP (SEQ ID NO: 23) were assayed for in vitro bactericidal activity against Pseudomonas aeruginosa, Escherichia coli, Salmonella typhimurium, and Acinetobacter baumannii. The starting inoculum for all experiments was 1×10^6 colony forming units (CFU)/ml. The CFU remaining at the end of 60 to 180 minute incubation was determined, and the data plotted as a log reduction in CFU/ml.
(§2) For FIGS. 10-13, in vitro bactericidal assays were performed using a starting inoculum of 1×10^6 CFU/ml of the bacterial suspension. The CFU remaining at the end of the 60-180 minute incubation was determined, and the data was plotted as log reduction in CFU/ml.
(§3) In particular, each of the test peptides (CAP37 peptides 120-146WR, 120-146WH, and 95-122 (SEQ ID NOs: 30, 31, and 26, respectively)) was used at 25, 12.5, 6.25, and 3.12 μM. Gentamicin was used at 4 μg/ml. 1×10^6/ml Acinetobacter baumannii ATCC® BAA-747™ or Pseudomonas aeruginosa ATCC® 27853™ (American Type Culture Collection, Manassas, Va.) were incubated with the peptides, negative buffer control (tryptone saline), and positive control gentamicin at pH 5.5 or 7.2. A 60 minute incubation was used for Acinetobacter baumannii ATCC® BAA-747™, while a 180 minute incubation was used for Pseudomonas aeruginosa ATCC® 27853™. 50 μl aliquots were plated out on agar plates and incubated overnight. Colony forming units were counted after overnight incubation and CFU/ml calculated.
For FIG. 14, 1×10^6/ml Pseudomonas aeruginosa ATCC® 27853™ were incubated with each of the test peptides (CAP37 peptides 120-146WR, 120-146WH, 120-146QR, 120-146QH, 120-146QR-5RMP, and 120-146QH-5RMP (SEQ ID NOs: 30, 31, 28, 29, 32, and 33, respectively)) at 150, 75, and 37.5 μg/ml, or negative buffer control (tryptone saline), for 180 minutes at pH 5.5. 50 μl aliquots were plated out on agar plates and incubated overnight. Colony forming units were counted after overnight incubation and CFU/ml calculated.

[2] = test system: Acinetobacter baumannii ATCC® BAA-747™; assay type: cell-based
Method: as §1, §2, §3

[3] = test system: Pseudomonas clinical isolate B64; test: BIOSCREEN C growth assay / MIC, antibiotic in combination with peptide; assay type: cell-based, P. aeruginosa; settings: for MIC, antibiotic alone: clinical isolate of P. aeruginosa, 1×10^5 CFU/well, 24 hours
Method: The peptide and antibiotics were set up in the wells of the microtiter plate at starting ratios of MIC equivalents of antibiotic:peptide at 3:1, 1:1, and 1:3. They were serially diluted to concentrations well below suboptimal/sublethal levels of the antibiotic and peptide. The organism was added (1×10^5 CFU/well), the BIOSCREEN C™ assay (Growth Systems USA, Piscataway, N.J.) was performed, and data was collected over 24 hours.

swine skin wounds [4] = test: Swine dermal wound model, histological evaluation; assay type: in vivo; settings: day 14 post-wounding
Method: The characteristics that were measured are required to indicate features of a well-healed wound. Inflammation should be low and re-epithelialization high.
(§4) Full thickness excisional wounds were induced on the dorsum of swine (N=3) using a 1.0 cm biopsy punch. Treatments were administered (0.20 ml) to each wound (N=6 wounds per group), and the wounds were dressed with standard occlusive dressing ([…]™, 3M Corporation, St. Paul, Minn.). Treatments were reapplied daily and dressings changed. Clinical wound healing observations and wound area (2 mm) measurements were performed on days 0, 3, 5, 7, 10, and 14 post-wounding. Wound area (2 mm) data were expressed as percentage (%) of wound healing. Animals were terminated on day 14 with wounds harvested and processed for histological evaluation. […] All peptide formulation treatment groups healed faster with greater rate of closure and re-epithelialization over time, as compared to the saline control (Group A).
The histology correlated with the clinical observations. […] There were minimal differences in the amount or character of granulation tissue, inflammation, and angiogenesis. All the wounds were well filled and vascularized.

swine skin wounds [5] = test: Swine full thickness excisional dermal wound model, wound area; assay type: in vivo
Method: In this Example, peptide compounds of the presently disclosed and claimed inventive concept(s) were evaluated as to their activity on the dermal wound healing process in a clinically relevant swine full thickness excisional wound model. Three different peptide formulations (Group B, Peptide 95-122 (SEQ ID NO: 26); Group C, Peptide 120-146WH (SEQ ID NO: 31); and Group D, Peptide 120-146QH-5RMP (SEQ ID NO: 33)) were each evaluated at the same concentration (3 mg/ml). Sterile saline served as the control (Group A).
as §4

[6] = 3 mg/ml, 0.20 ml per wound, reapplied daily

gentamicin [reference compound]
activity against P. aeruginosa [1]: highly active
log reduction of CFU/ml, Pseudomonas aeruginosa, pH 5.5 ([1]; 180 minutes, FIG. 13): 2 log
activity against Acinetobacter baumannii at pH 5.5 ([2]; gentamicin 4 μg/ml, 60 minutes): unable to kill the bacteria
activity against Acinetobacter baumannii at pH 7.2 ([2]; gentamicin 4 μg/ml, 60 minutes): active against the bacteria

CO/N=C(\C(=O)N[C@@H]1C(=O)N2C(C(=O)O)=C(COC(C)=O)CS[C@H]12)c1csc(N)n1 [Cefotaxime, reference compound]
bactericidal impact of antibiotic alone at sublethal concentration ([3]; 2.8 μg/ml of Cefotaxime): very little bactericidal impact
MIC, antibiotic alone [3]: 15 µg/mL

CC(C)C[C@H](NC(=O)[C@H](CCCNC(=N)N)NC(=O)CNC(=O)CNC(=O)[C@H](CO)NC(=O)[C@H](Cc1c[nH]cn1)NC(=O)[C@H](CCC(N)=O)NC(=O)[C@H](CO)NC(=O)CNC(=O)[C@H](Cc1c[nH]c2ccccc12)NC(=O)CNC(=O)[C@H](C)NC(=O)[C@@H](NC(=O)[C@H](CCC(N)=O)NC(=O)[C@H](CS)NC(=O)[C@H](CCCNC(=N)N)NC(=O)[C@@H](NC(=O)CNC(=O)[C@H](CCCNC(=N)N)NC(=O)[C@H](CCCNC(=N)N)NC(=O)[C@H](CCCNC(=N)N)NC(=O)[C@H](CCCNC(=N)N)NC(=O)COCCOCCNC(=O)COCCOCCN)[C@@H](C)O)C(C)C)C(=O)N[C@@H](CO)C(=O)N[C@@H](CCCNC(=N)N)C(=O)N[C@@H](Cc1ccccc1)C(=O)N1CCC[C@H]1C(=O)N[C@@H](CCCNC(=N)N)C(=O)N[C@@H](Cc1ccccc1)C(=O)N[C@H](C(=O)N[C@@H](CC(N)=O)C(=O)N[C@H](C(=O)N[C@@H](CCCNC(=N)N)C(=O)O)C(C)C)C(C)C [120-146QH-5RMP] (H-[AEEA][AEEA]RRRRGTRCQVAGWGSQHSGGRLSRFPRFVNVR-OH; N-terminus and C-terminus assumed)
epidermal resurfacing and maturation of the epidermis versus saline control (swine skin wounds [4]): greater extent of epidermal resurfacing and maturation of the epidermis
Histopathology Results, Mean Angiogenesis (swine skin wounds [4]; 3 mg/ml): 1.3
Histopathology Results, Mean Epithelization (swine skin wounds [4]; 3 mg/ml): 4.0
Histopathology Results, Mean Granulation (swine skin wounds [4]; 3 mg/ml): 4.0
Histopathology Results, Mean Inflammation (swine skin wounds [4]; 3 mg/ml): 0.5
Mean Wound Healing (%) Day 0 (swine skin wounds [5]; [6]): 0.0%
Mean Wound Healing (%) Day 3 (swine skin wounds [5]; [6]): 22.5%
Mean Wound Healing (%) Day 5 (swine skin wounds [5]; [6]): 34.1%
Mean Wound Healing (%) Day 7 (swine skin wounds [5]; [6]): 64.1%
Mean Wound Healing (%) Day 10 (swine skin wounds [5]; [6]): 93.7%
Mean Wound Healing (%) Day 14 (swine skin wounds [5]; [6]): 98.0%
dermal wound healing (swine skin wounds [5]; topical 3 mg/ml over 14 days, vs saline): accelerate dermal wound healing

C[C@H]1COc2c(N3CCN(C)CC3)c(F)cc3c(=O)c(C(=O)O)cn1c23 [Levofloxacin, reference compound]
MIC, antibiotic alone [3]: 15 µg/mL

GTRCQVAGWGSWRSGGRLSRFPRFVNV [Peptide 120-146WR]
activity against P. aeruginosa [1]: highly active
effectiveness against Pseudomonas aeruginosa compared with gentamicin, pH 7.2 ([1]; peptide at 25 VIM (so in the source)): as effective as the standard antibiotic gentamicin
activity against A. baumannii at 12.5 μM ([2]; 12.5 μM): highly active
activity against A. baumannii at 25 μM ([2]; 25 μM): highly active
